Test results published in patent US4285941A, “Cephalosporin compounds and antibacterial drugs containing the same” (Eisai Co., Ltd., priority 1979, dated 1981).

How the values were obtained:
Experiment in all cases: Minimal inhibitory concentration (MIC), standard agar dilution method
Format in all cases: cell-based
[1] = system: Proteus morganii EP-14; settings: Morganella morganii, EP14; Mueller Hinton agar, 37° C., 18 hours; Examples 1, 2, 4, 5, 6, 8 and 22 as sodium salts, others as free carboxylic acids
Method: (§1) The compounds obtained in these examples were tested for their antibacterial activities in vitro. Minimal inhibitory concentration (MIC) was determined by the standard agar dilution method of the Japan Society of Chemotherapy. Compounds were dissolved in appropriate solvents (sterilized water for sodium salts and acetone-water [1:1] for free acids) and serial two-fold dilutions were made. Sodium salt of Cefazolin was chosen as the control compound. One-ml aliquots of each dilution were mixed with 9 ml of Mueller Hinton agar in petri-dishes to make agar plates containing the compound at serially diluted concentrations. After agar hardened, plates were put in an incubator at 37° C. for 1.5-2 hours with the lids slightly open to evaporate acetone off the plates. Test organisms were grown for 18 hours at 37° C. in Trypticase Soy broth and diluted in saline to approximately 10^6 colony forming units per ml. A loopful of each cell suspension was applied on the agar plate mentioned above and the plates were incubated for 18 hours at 37° C. before MIC was determined. MIC values of the compounds of Examples 1, 2, 4, 5, 6, 8 and 22 were determined as their sodium salts and those of other compounds as free carboxylic acids.

[2] = system: Klebsiella pneumoniae EK-6; settings: EK6, Mueller Hinton agar, 37° C., 18 hours, Examples 1, 2, 4, 5, 6, 8 and 22 as sodium salts, others as free carboxylic acids
Method: as §1

[3] = system: Escherichia coli NIHJ; settings: Mueller Hinton agar, 37° C., 18 hours, Examples 1, 2, 4, 5, 6, 8 and 22 as sodium salts, others as free carboxylic acids
Method: as §1

[4] = system: Staphylococcus aureus 209-P; settings: Mueller Hinton agar, 37° C., 18 hours, Examples 1, 2, 4, 5, 6, 8 and 22 as sodium salts, others as free carboxylic acids
Method: as §1

[5] = system: Pseudomonas aeruginosa EP-172; settings: EP172, Mueller Hinton agar, 37° C., 18 hours, Examples 1, 2, 4, 5, 6, 8 and 22 as sodium salts, others as free carboxylic acids
Method: as §1

[6] = system: Serratia marcescens ES-75; settings: ES75, Mueller Hinton agar, 37° C., 18 hours, Examples 1, 2, 4, 5, 6, 8 and 22 as sodium salts, others as free carboxylic acids
Method: as §1

## Cc1nnc(SCC2=C(C(=O)O)N3C(=O)[C@@H](NC(=O)[C@H](NC(=O)c4coc5cc(O)c(O)cc5c4=O)c4ccccc4)[C@H]3SC2)s1 [Example 2, 7β-[D-2-(6,7-Dihydroxychromone-3-carboxamido)-2-phenyl-acetamido]-3-[(5-methyl-1,3,4-thiadiazol-2-yl)thiomethyl]-3-cephem-4-carboxylic acid]
[1]
  MIC: 0.8 µg/mL
[2]
  MIC: ≤ 0.1 µg/mL
[3]
  MIC: 0.8 µg/mL
[4]
  MIC: 1.56 µg/mL
[5]
  MIC: 3.13 µg/mL
[6]
  MIC: ≤ 0.1 µg/mL

## Cn1nnnc1SCC1=C(C(=O)O)N2C(=O)[C@@H](NC(=O)[C@H](NC(=O)c3coc4cc(O)c(O)cc4c3=O)c3ccc(O)cc3)[C@H]2SC1 [Example 3, 7β-[D-2-(6,7-Dihydroxychromone-3-carboxamido)-2-(4-hydroxyphenyl)acetamido]-3-[(1-methyltetrazol-5-yl)thiomethyl]-3-cephem-4-carboxylic acid]
[1]
  MIC: 0.4 µg/mL
[2]
  MIC: ≤ 0.1 µg/mL
[3]
  MIC: 0.2 µg/mL
[4]
  MIC: 0.8 µg/mL
[5]
  MIC: 0.4 µg/mL
[6]
  MIC: ≤ 0.1 µg/mL

## CC(=O)Oc1cc2occ(C(=O)N[C@@H](C(=O)N[C@@H]3C(=O)N4C(C(=O)O)=C(CSc5nnc(C)s5)CS[C@H]34)c3ccccc3)c(=O)c2cc1OC(C)=O [Example 6, 7β-[D-2-(6,7-Diacetoxychromone-3-carboxamido)-2-phenylacetamido]-3-[(5-methyl-1,3-4-thiadiazol-2-yl)thiomethyl]-3-cephem-4-carboxylic acid]
[1]
  MIC: 0.8 µg/mL
[2]
  MIC: ≤ 0.1 µg/mL
[3]
  MIC: 0.8 µg/mL
[4]
  MIC: 1.56 µg/mL
[5]
  MIC: 3.13 µg/mL
[6]
  MIC: ≤ 0.1 µg/mL

## CC(=O)Oc1cc2occ(C(=O)N[C@@H](C(=O)N[C@@H]3C(=O)N4C(C(=O)O)=C(CSc5nnnn5C)CS[C@H]34)c3ccc(O)cc3)c(=O)c2cc1OC(C)=O [Example 7, 7β-[D-2-(6,7-Diacetoxychromone-3-carboxamido)-2-(4-hydroxyphenyl)acetamido]-3-[(1-methyltetrazol-5-yl)thiomethyl]-3-cephem-4-carboxylic acid]
[1]
  MIC: 0.4 µg/mL
[2]
  MIC: ≤ 0.1 µg/mL
[3]
  MIC: ≤ 0.1 µg/mL
[4]
  MIC: 1.56 µg/mL
[5]
  MIC: 0.4 µg/mL
[6]
  MIC: ≤ 0.1 µg/mL

## CC(=O)Oc1cc2occ(C(=O)N[C@@H](C(=O)N[C@@H]3C(=O)N4C(C(=O)O)=C(CSc5nnc(C)s5)CS[C@H]34)c3ccc(O)cc3)c(=O)c2cc1OC(C)=O [Example 8, 7β-[D-2-(6,7-Diacetoxychromone-3-carboxamido)-2-(4-hydroxyphenyl)acetamido]-3-[(5-methyl-1,3,4-thiadiazol-2-yl)thiomethyl]-3-cephem-4-carboxylic acid]
[1]
  MIC: 1.56 µg/mL
[2]
  MIC: ≤ 0.1 µg/mL
[3]
  MIC: 0.8 µg/mL
[4]
  MIC: 3.13 µg/mL
[5]
  MIC: 1.56 µg/mL
[6]
  MIC: ≤ 0.1 µg/mL

## Cn1nnnc1SCC1=C(C(=O)O)N2C(=O)[C@@H](NC(=O)[C@H](NC(=O)c3coc4c(O)c(O)ccc4c3=O)c3ccc(O)cc3)[C@H]2SC1 [Example 9, 7β-[D-2-(7,8-Dihydroxychromone-3-carboxamido)-2-(4-hydroxyphenyl)acetamido]-3-[(1-methyltetrazol-5-yl)thiomethyl]-3-cephem-4-carboxylic acid]
[1]
  MIC: 12.5 µg/mL
[2]
  MIC: ≤ 0.1 µg/mL
[3]
  MIC: 1.56 µg/mL
[4]
  MIC: 0.8 µg/mL
[5]
  MIC: 6.25 µg/mL
[6]
  MIC: 3.13 µg/mL

## CC(=O)Oc1ccc2c(=O)c(C(=O)N[C@@H](C(=O)N[C@@H]3C(=O)N4C(C(=O)O)=C(CSc5nnc(C)s5)CS[C@H]34)c3ccccc3)coc2c1OC(C)=O [Example 10, 7β-[D-2-(7,8-Diacetoxychromone-3-carboxamido)-2-phenyl-acetamido]-3-[(5-methyl-1,3,4-thiadiazol-2-yl)thiomethyl]-3-cephem-4-carboxylic acid]
[1]
  MIC: 1.56 µg/mL
[2]
  MIC: ≤ 0.1 µg/mL
[3]
  MIC: 0.8 µg/mL
[4]
  MIC: 0.8 µg/mL
[5]
  MIC: 1.56 µg/mL
[6]
  MIC: 0.2 µg/mL

## CC(=O)Oc1ccc2c(=O)c(C(=O)N[C@@H](C(=O)N[C@@H]3C(=O)N4C(C(=O)O)=C(CSc5nnnn5C)CS[C@H]34)c3ccc(O)cc3)coc2c1OC(C)=O [Example 11, 7β-[D-2-(7,8-Diacetoxychromone-3-carboxamido)-2-(4-hydroxyphenyl)acetamido] -3-[(1-methyltetrazol-5-yl)thiomethyl]-3-cephem-4-carboxylic acid]
[1]
  MIC: 25 µg/mL
[2]
  MIC: ≤ 0.1 µg/mL
[3]
  MIC: 0.8 µg/mL
[4]
  MIC: 0.8 µg/mL
[5]
  MIC: 6.25 µg/mL
[6]
  MIC: 1.56 µg/mL

## CC(=O)Oc1ccc2c(=O)c(C(=O)N[C@@H](C(=O)N[C@@H]3C(=O)N4C(C(=O)O)=C(CSc5nnc(C)s5)CS[C@H]34)c3ccc(O)cc3)coc2c1OC(C)=O [Example 12, 7β[D-2-(7,8-Diacetoxychromone-3-carboxamido)-2-(4-hydroxyphenyl)acetamido]-3-[(5-methyl-1,3,4-thiadiazol-2-yl)thiomethyl]-3-cephem-4-carboxylic acid]
[1]
  MIC: 3.13 µg/mL
[2]
  MIC: ≤ 0.1 µg/mL
[3]
  MIC: 1.56 µg/mL
[4]
  MIC: 1.56 µg/mL
[5]
  MIC: 1.56 µg/mL
[6]
  MIC: 0.2 µg/mL

## Cn1nnnc1SCC1=C(C(=O)O)N2C(=O)[C@@H](NC(=O)[C@H](NC(=O)c3coc4cc(O)ccc4c3=O)c3ccc(O)cc3)[C@H]2SC1 [Example 13, 7β-[D-2-(7-Hydroxychromone-3-carboxamido)-2-(4-hydroxyphenyl)acetamido]-3-[(1-methyltetrazol-5-yl)thiomethyl]-3-cephem-4-carboxylic acid]
[1]
  MIC: 25 µg/mL
[2]
  MIC: 12.5 µg/mL
[3]
  MIC: 6.25 µg/mL
[4]
  MIC: 0.4 µg/mL
[5]
  MIC: 50 µg/mL
[6]
  MIC: 12.5 µg/mL

## Cn1nnnc1SCC1=C(C(=O)O)N2C(=O)[C@@H](NC(=O)[C@H](NC(=O)c3coc4ccccc4c3=O)c3ccc(O)cc3)[C@H]2SC1 [Example 15, 7β-[D-2-(Chromone-3-carboxamido)-2-(4-hydroxyphenyl)acetamido]-3-[(1-methyltetrazol-5-yl)thiomethyl]-3-cephem-4-carboxylic acid]
[1]
  MIC: 25 µg/mL
[2]
  MIC: 12.5 µg/mL
[3]
  MIC: 6.25 µg/mL
[4]
  MIC: 0.4 µg/mL
[5]
  MIC: 100 µg/mL
[6]
  MIC: 25 µg/mL

## Cn1nnnc1SCC1=C(C(=O)O)N2C(=O)[C@@H](NC(=O)[C@H](NC(=O)c3coc4ccccc4c3=O)c3ccccc3)[C@H]2SC1 [Example 16, 7β-[D-2-(Chromone-3-carboxamido)-2-phenylacetamido]-3-[(1-methyltetrazol-5-yl)thiomethyl]-3-cephem-4-carboxylic acid]
[1]
  MIC: 6.25 µg/mL
[2]
  MIC: 6.25 µg/mL
[3]
  MIC: 6.25 µg/mL
[4]
  MIC: ≤ 0.1 µg/mL
[5]
  MIC: 25 µg/mL
[6]
  MIC: 3.13 µg/mL

## O=C(O)C1=C(CSc2nncs2)CS[C@@H]2[C@H](NC(=O)[C@H](NC(=O)c3coc4cc(O)c(O)cc4c3=O)c3ccc(O)cc3)C(=O)N12 [Example 19, 7β-[D-2-(6,7-Dihydroxychromone-3-carboxamido)-2-(4-hydroxyphenyl)acetamido]-3-[(1,3,4-thiadiazol-2-yl)thiomethyl]-3-cephem-4-carboxylic acid]
[1]
  MIC: 12.5 µg/mL
[2]
  MIC: ≤ 0.1 µg/mL
[3]
  MIC: 0.4 µg/mL
[4]
  MIC: 0.8 µg/mL
[5]
  MIC: 0.4 µg/mL
[6]
  MIC: 0.2 µg/mL

## CCn1nnnc1SCC1=C(C(=O)O)N2C(=O)[C@@H](NC(=O)[C@H](NC(=O)c3coc4cc(O)c(O)cc4c3=O)c3ccc(O)cc3)[C@H]2SC1 [Example 20, 7β-[D-2-(6,7-Dihydroxychromone-3-carboxamido)-2-(4-hydroxyphenyl)acetamido]-3-[(1-ethyltetrazol-5-yl)thiomethyl]-3-cephem-4-carboxylic acid]
[1]
  MIC: 3.13 µg/mL
[2]
  MIC: ≤ 0.1 µg/mL
[3]
  MIC: 0.2 µg/mL
[4]
  MIC: 0.8 µg/mL
[5]
  MIC: 0.2 µg/mL
[6]
  MIC: ≤ 0.1 µg/mL

## CN(C)CCn1nnnc1SCC1=C(C(=O)O)N2C(=O)[C@@H](NC(=O)[C@H](NC(=O)c3coc4cc(O)c(O)cc4c3=O)c3ccc(O)cc3)[C@H]2SC1 [Example 21, 7β-[D-2-(6,7-Dihydroxychromone-3-carboxamido)-2-(4-hydroxyphenyl)acetamido]-3-{[1-(2-dimethylaminoethyl)tetrazol-5-yl]-thiomethyl}-3-cephem-4-carboxylic acid]
[1]
  MIC: 12.5 µg/mL
[2]
  MIC: ≤ 0.1 µg/mL
[3]
  MIC: 0.4 µg/mL
[4]
  MIC: 1.56 µg/mL
[5]
  MIC: 0.8 µg/mL
[6]
  MIC: ≤ 0.1 µg/mL

## O=C(O)C1=C(CSc2nnc[nH]2)CS[C@@H]2[C@H](NC(=O)[C@H](NC(=O)c3coc4cc(O)c(O)cc4c3=O)c3ccc(O)cc3)C(=O)N12 [Example 22]
[1]
  MIC: 50 µg/mL
[2]
  MIC: ≤ 0.1 µg/mL
[3]
  MIC: 1.56 µg/mL
[4]
  MIC: 3.13 µg/mL
[5]
  MIC: 1.56 µg/mL
[6]
  MIC: 0.4 µg/mL

## O=C(O)Cn1nnnc1SCC1=C(C(=O)O)N2C(=O)[C@@H](NC(=O)[C@H](NC(=O)c3coc4cc(O)c(O)cc4c3=O)c3ccc(O)cc3)[C@H]2SC1 [Example 23]
[1]
  MIC: 12.5 µg/mL
[2]
  MIC: ≤ 0.1 µg/mL
[3]
  MIC: 0.4 µg/mL
[4]
  MIC: 3.13 µg/mL
[5]
  MIC: 0.8 µg/mL
[6]
  MIC: ≤ 0.1 µg/mL
